Molecular target: T1, Endothelial lipase (EL) (Homo sapiens, UniProt Q9Y5X9)
T1 construct: HT-1080 cells, which were transformed by RAGE technology (Athersys) to overexpress endogenous EL; endogenous in cells; conditioned medium used as the enzyme source
T1 sequence (Q9Y5X9 21-500): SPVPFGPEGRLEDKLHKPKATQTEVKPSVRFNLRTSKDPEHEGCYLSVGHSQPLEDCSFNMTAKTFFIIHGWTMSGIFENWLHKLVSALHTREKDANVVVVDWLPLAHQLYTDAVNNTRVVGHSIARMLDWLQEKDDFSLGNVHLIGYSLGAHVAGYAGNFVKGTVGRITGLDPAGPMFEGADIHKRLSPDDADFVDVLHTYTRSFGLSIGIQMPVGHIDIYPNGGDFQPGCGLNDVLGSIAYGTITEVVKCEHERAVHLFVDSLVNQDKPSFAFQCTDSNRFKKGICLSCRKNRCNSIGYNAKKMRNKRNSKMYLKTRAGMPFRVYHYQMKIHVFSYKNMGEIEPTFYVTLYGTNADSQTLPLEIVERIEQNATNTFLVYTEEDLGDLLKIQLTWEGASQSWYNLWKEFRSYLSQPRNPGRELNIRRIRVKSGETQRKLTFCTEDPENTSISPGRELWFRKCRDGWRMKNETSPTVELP
Assay: Endothelial lipase (EL) enzymatic assay with fluorescent substrate A10070 in DMPG vesicles
Format: biochemical
Conditions: conditioned media from HT-1080 cells overexpressing endogenous EL; 20 min preincubation at 37° C.; read-out: EL IC50
Procedure, shortened: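 EL activity was followed as a fluorescence rate (488/530 nm, reads every 20 s for 10 min, linear slope) on A10070 doped at 0.05 mole fraction into sonicated DMPG vesicles. Compound was first incubated 20 min at 37 °C, pH 8.0 HEPES/CaCl2 buffer, with conditioned media from EL-overexpressing HT-1080 cells.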

| IC50 [µM] | SMILES |
| --- | --- |
| 0.525 | Nc1c(C(=O)NC2CCC(c3cccc(OCc4ccccc4)c3)C2)[nH]c(=O)[nH]c1=O (centres unmarked) [Example 158, 5-amino-N-(3-(3-(benzyloxy)phenyl)cyclopentyl)-2,6-dioxo-1,2,3,6-tetrahydropyrimidine-4-carboxamide] |
| 0.01 | O=C(N[C@@H]1CCCc2c(OCc3ccccc3)cccc21)c1[nH]c(=O)[nH]c(=O)c1O [Example 258, (R)-N-(5-(benzyloxy)-1,2,3,4-tetrahydronaphthalen-1-yl)-5-hydroxy-2,6-dioxo-1,2,3,6-tetrahydropyrimidine-4-carboxamide] |

Further lines, the molecule ahead of its results:

| SMILES | IC50 [µM] |
| --- | --- |
| NC(=O)c1ccccc1-c1ccc([C@@H]2CC[C@H](NC(=O)c3[nH]c(=O)[nH]c(=O)c3N)C2)cc1 [Example 180, 5-amino-N-((1S,3R)-3-(2′-carbamoyl-[1,1′-biphenyl]-4-yl)cyclopentyl)-2,6-dioxo-1,2,3,6-tetrahydropyrimidine-4-carboxamide] | 0.141 |
| Nc1c(C(=O)NC2CCCc3ccsc32)[nH]c(=O)[nH]c1=O (centres unmarked) [Example 46, 5-amino-2,6-dioxo-N-(4,5,6,7-tetrahydrobenzo[b]thiophen-7-yl)-1,2,3,6-tetrahydropyrimidine-4-carboxamide] | 3.32 |

Same assay, conditions: range observed in the EL assay; read-out: EL IC50 values

| IC50 [µM] | SMILES |
| --- | --- |
| ≤ 10 | O=C(NC1CCCc2c(CCc3ccccc3)cccc21)c1[nH]c(=O)[nH]c(=O)c1O (centres unmarked) [Example 284, 5-hydroxy-2,6-dioxo-N-(5-phenethyl-1,2,3,4-tetrahydronaphthalen-1-yl)-1,2,3,6-tetrahydropyrimidine-4-carboxamide] |
| ≤ 10 | Nc1c(C(=O)NC2CCC(c3ccc(OCc4ccccc4)cc3)C2)[nH]c(=O)[nH]c1=O (single isomer, unassigned) [Example 151, 5-amino-N-(3-(4-(benzyloxy)phenyl)cyclopentyl)-2,6-dioxo-1,2,3,6-tetrahydropyrimidine-4-carboxamide] |
| ≤ 10 | Nc1c(C(=O)N[C@@H]2CC[C@@H](c3ccccc3)c3ccccc32)[nH]c(=O)[nH]c1=O [Example 20, 5-amino-2,6-dioxo-N-((1R,4S)-4-phenyl-1,2,3,4-tetrahydronaphthalen-1-yl)-1,2,3,6-tetrahydropyrimidine-4-carboxamide] |
| ≤ 10 | O=C(N[C@@H]1CCCc2c(OCc3ccccc3)cccc21)c1[nH]c(=O)[nH]c(=O)c1O [Example 258, (R)-N-(5-(benzyloxy)-1,2,3,4-tetrahydronaphthalen-1-yl)-5-hydroxy-2,6-dioxo-1,2,3,6-tetrahydropyrimidine-4-carboxamide] |
| ≤ 10 | Nc1c(C(=O)N[C@H]2CCCc3cc(OCc4ccccc4)ccc32)[nH]c(=O)[nH]c1=O [Example 93, (S)-5-amino-N-(6-(benzyloxy)-1,2,3,4-tetrahydronaphthalen-1-yl)-2,6-dioxo-1,2,3,6-tetrahydropyrimidine-4-carboxamide] |
| ≤ 10 | Nc1c(C(=O)NC2CCC(c3ccccc3)c3ccccc32)[nH]c(=O)[nH]c1=O (centres unmarked) [Example 6, 5-amino-2,6-dioxo-N-(4-phenyl-1,2,3,4-tetrahydronaphthalen-1-yl)-1,2,3,6-tetrahydropyrimidine-4-carboxamide] |

The next lines start with the molecule.

| SMILES | IC50 [µM] |
| --- | --- |
| O=C(N[C@@H]1CCCc2c1cccc2C(F)(F)F)c1[nH]c(=O)[nH]c(=O)c1O [Example 254, (R)-5-hydroxy-2,6-dioxo-N-(5-(trifluoromethyl)-1,2,3,4-tetrahydronaphthalen-1-yl)-1,2,3,6-tetrahydropyrimidine-4-carboxamide] | ≤ 10 |
| NC(=O)c1ccccc1-c1ccc([C@@H]2CC[C@H](NC(=O)c3[nH]c(=O)[nH]c(=O)c3N)C2)cc1 [Example 180, 5-amino-N-((1S,3R)-3-(2′-carbamoyl-[1,1′-biphenyl]-4-yl)cyclopentyl)-2,6-dioxo-1,2,3,6-tetrahydropyrimidine-4-carboxamide] | ≤ 10 |
| COc1ccc2c(c1)C(NC(=O)c1[nH]c(=O)[nH]c(=O)c1N)CC2 (centres unmarked) [Example 11, 5-amino-N-(6-methoxy-2,3-dihydro-1H-inden-1-yl)-2,6-dioxo-1,2,3,6-tetrahydropyrimidine-4-carboxamide] | ≤ 10 |
| O=C(Cn1c(=O)[nH]c(C(=O)N[C@H]2CC[C@@H](c3ccccc3)CC2)c(O)c1=O)N[C@H]1CC[C@@H](c2ccccc2)CC1 [Example 268, 5-Hydroxy-2,6-dioxo-1-(2-oxo-2-((cis-4-phenylcyclohexyl)amino)ethyl)-N-(cis-4-phenylcyclohexyl)-1,2,3,6-tetrahydropyrimidine-4-carboxamide] | ≤ 10 |
| CC(C)COc1ccc(C2CCC(NC(=O)c3[nH]c(=O)[nH]c(=O)c3N)C2)cc1 (centres unmarked) [Example 145, 5-amino-N-(3-(4-isobutoxyphenyl)cyclopentyl)-2,6-dioxo-1,2,3,6-tetrahydropyrimidine-4-carboxamide] | ≤ 10 |
| O=C(N[C@@H]1CC[C@@H](C(=O)N[C@H]2CCCc3ccccc32)C1)c1[nH]c(=O)[nH]c(=O)c1O [Example 298, 5-hydroxy-2,6-dioxo-N-((1R,3R)-3-((S)-1,2,3,4-tetrahydronaphthalen-1-ylcarbamoyl)cyclopentyl)-1,2,3,6-tetrahydropyrimidine-4-carboxamide] | ≤ 10 |
| Nc1c(C(=O)N[C@H]2CCCc3ccc(F)cc32)[nH]c(=O)[nH]c1=O [Example 41, (S)-5-amino-N-(7-fluoro-1,2,3,4-tetrahydronaphthalen-1-yl)-2,6-dioxo-1,2,3,6-tetrahydropyrimidine-4-carboxamide] | ≤ 10 |
| COc1cccc2c1CCC[C@H]2NC(=O)c1[nH]c(=O)[nH]c(=O)c1N [Example 103, (R)-5-amino-N-(5-methoxy-1,2,3,4-tetrahydronaphthalen-1-yl)-2,6-dioxo-1,2,3,6-tetrahydropyrimidine-4-carboxamide] | ≤ 10 |
| Nc1c(C(=O)NC2CCCc3ccsc32)[nH]c(=O)[nH]c1=O (centres unmarked) [Example 46, 5-amino-2,6-dioxo-N-(4,5,6,7-tetrahydrobenzo[b]thiophen-7-yl)-1,2,3,6-tetrahydropyrimidine-4-carboxamide] | ≤ 10 |
| Nc1c(C(=O)N[C@@H]2CCc3ccc(C(F)(F)F)cc32)[nH]c(=O)[nH]c1=O [Example 1, (R)-5-Amino-2,6-dioxo-N-(6-(trifluoromethyl)-2,3-dihydro-1H-inden-1-yl)-1,2,3,6-tetrahydropyrimidine-4-carboxamide] | ≤ 10 |
| Nc1c(C(=O)N[C@H]2CC[C@@H](c3ccc(-c4cnn(Cc5ccccc5)c4)cc3)C2)[nH]c(=O)[nH]c1=O (stereo in doubt) [Example 179, 5-amino-N-((1S,3R)-3-(4-(1-benzyl-1H-pyrazol-4-yl)phenyl)cyclopentyl)-2,6-dioxo-1,2,3,6-tetrahydropyrimidine-4-carboxamide] | ≤ 10 |
| COc1ccc2c(c1)[C@H](NC(=O)c1[nH]c(=O)[nH]c(=O)c1O)CCC2 [Example 264, (R)-5-hydroxy-N-(7-methoxy-1,2,3,4-tetrahydronaphthalen-1-yl)-2,6-dioxo-1,2,3,6-tetrahydropyrimidine-4-carboxamide] | ≤ 10 |
| Nc1c(C(=O)N[C@H]2CC[C@@H](c3ccc(-c4ccc(Cl)cc4)cc3)C2)[nH]c(=O)[nH]c1=O [Example 170, 5-amino-N-((1S,3R)-3-(4′-chlorobiphenyl-4-yl)cyclopentyl)-2,6-dioxo-1,2,3,6-tetrahydropyrimidine-4 carboxamide] | ≤ 10 |
| O=C(N[C@@H]1CC[C@H](c2ccccc2)C1)c1[nH]c(=O)[nH]c(=O)c1O [Example 271, 5-Hydroxy-2,6-dioxo-N-((1R,3S)-3-phenylcyclopentyl)-1,2,3,6-tetrahydropyrimidine-4-carboxamide] | ≤ 10 |
| CS(=O)(=O)N1CCC(NC(=O)c2[nH]c(=O)[nH]c(=O)c2N)c2ccccc21 (single isomer, unassigned; enantiomer b) [Example 196, 5-amino-N-(1-(methylsulfonyl)-1,2,3,4-tetrahydroquinolin-4-yl)-2,6-dioxo-1,2,3,6-tetrahydropyrimidine-4-carboxamide (Enantiomer B)] | ≤ 10 |
| COc1ccccc1C1CCC(NC(=O)c2[nH]c(=O)[nH]c(=O)c2N)C1 (centres unmarked) [Example 141, 5-amino-N-(3-(2-methoxyphenyl)cyclopentyl)-2,6-dioxo-1,2,3,6-tetrahydropyrimidine-4-carboxamide] | ≤ 10 |
